Data as given in patent US20250115577A1, “BCL-2 Inhibitors” (Eil Therapeutics, Inc., priority 2021, published 2025).
pEC50, pIC50: −log10 of the molar value.

Legend:
BCL-2 = BCL-2 (Homo sapiens (Human), UniProt P10415); experiment: BCL-2 TR-FRET Assay (primary PPI inhibition); assay type: binding; conditions: 60 min incubation, read-out: BCL2 IC50
Experimental: Example A. BCL-2 TR-FRET Assay (BPS Bioscience, #50222)
(§1) The following assay concentrations and times were used: 3 ng of BCL-2, 5 μL of 1:100 anti-His Tb-labeled donor, 5 μL of 1:100 Dye-labeled acceptor, 5 µL of 1:40 BCL-2 Peptide Ligand, and 2 μL of 200× test compound, with 60 min incubation time (final concentration of DMSO 0.5%). The results of the assay were read using a plate reader with the following parameters: TR FRET, 340ex/620 and 665em; 60 usec Delay; and 500 usec integration.
(§2) Instrumentation: CLARIOstar Plus (BMG LABTECH); Biomek FX for liquid handling (Beckman Coulter).

BCL-xL = BCL-xL (Homo sapiens (Human), UniProt Q07817); experiment: BCL-xL TR-FRET Assay (primary PPI inhibition); assay type: binding; conditions: 60 min incubation, read-out: BCLxL IC50
Experimental: Example B. BCL-xL TR-FRET Assay (BPS Bioscience, #50223)
as §1, with “used: 10.5” for “used: 3”, “of BCL-xL,” for “of BCL-2,”, “of 1:120” for “of 1:100”, “5 μL” for “5 µL”, “of 1:96 BCL-xL” for “of 1:40 BCL-2”, “Ligand,” for “Ligand, and”
as §2

BCL-2 [G101V] = BCL-2 [G101V] (Homo sapiens (Human), UniProt P10415, G101V); experiment: BCL-2 [G101V] TR-FRET Assay (primary PPI inhibition); assay type: binding; conditions: 60 min incubation, read-out: BCL2[G101V] IC50
Experimental: Example C. BCL-2 [G101V]TR-FRET Assay
as §1, with “0.22 ng/μl” for “3 ng”, “BCL-2 (SinoBiological, #10195-H08E1),” for “BCL-2,”, “μL” for “µL”, “Ligand (BPS Bioscience, #50223),” for “Ligand,”
as §2

RS4-11 cells = experiment: Cell viability assay (CellTiter-Glo), RS4-11; assay type: cell-based; conditions: Homo sapiens, RS4-11, 72 h, 3 days of incubation
Experimental: (§3) Example D. Cell Viability Assays (Cell lines HEK293, RS4-11, MOLT-4)
(§4) Cells were seeded at a density of 4000 cells per well in the 384-well clear bottom plate (Greiner Cat #781090) to the 45 μL total volume of either DMEM (PanEco, Cat #C420, for HEK293) or RPMI (PanEco, Cat #C330, for other cell lines) with 10% FBS(HyClone Cat #SV30160.03). Prior to adding compounds, the HEK293 cells were allowed to adhere overnight at 37° C. and 5% CO2. The 500× compounds solutions in DMSO(Sigma Cat #D2650) were dispersed into a 384-well compound plate (Diamond Well Plate, Axigen, Cat #P-384-120 SQ-C—S) including only DMSO control. The 1 μL aliquots of the 500× compounds from the compound plate were added to 49 μL of culture medium in the Dilution plate (Diamond Well Plate, Axigen, Cat #P-384-120 SQ-C—S), mixed and then the 5 μL aliquts of the 10× compound solutions were transferred to cells followed by centrifugation at 100 g for 1 min. Final DMSO concentration was 0.2%. After 3 days of incubation the 10 μL aliquots of CellTiter-Glo (Promega, CAT #G7572) were added to the cells, plate was centrifuged at 100 g for 1 min and the luminescence was measured on the CLARIOstar Plus (BMG LABTECH) instrument.
as §2

[1] = Cell viability assay (CellTiter-Glo), HEK293; assay type: cell-based; conditions: human, HEK293 cells, 3 days of incubation
Experimental: as §3, §4, §2

MOLT-4 cells = experiment: Cell viability assay (CellTiter-Glo), MOLT-4; assay type: cell-based; conditions: Homo sapiens, 72 h, 3 days of incubation
Experimental: as §3, §4, §2

[2] = tested on: caspase-3 and -7 activities in RS4-11 cells; experiment: Caspase-3/7 activation (Caspase-Glo 3/7) in RS4-11 cells; assay type: cell-based; conditions: Homo sapiens, 3.5 h, read-out: Cas-3/7 EC50
Experimental: Example E. Caspase-3/7 Activation
Assay Principle: The Caspase-Glo 3/7 Assay is homogeneous, luminescent assay that measures caspase-3 and -7 activities. The assay provides a luminogenic caspase-3/7 substrate, which contains the tetrapeptide sequence DEVD, in a reagent optimized for caspase activity.
Assay Procedure: Incubate RS4-11 (ATCC, CRL-1873) cells in the 384-well white plate (Corning, #3570) with varying concentrations of test compounds for 3.5 h in a humidified incubator at 37° C. and 5% CO2 […]. Add 15 μL of the Caspase-Glo (Promega, #8212) reagent to each well and to incubate the plate for 30 min at rt. Read on the CLARIOstar Plus (BMG LABTECH) instrument.
as §2

Chain of BCL-xL (Q07817 whole entry): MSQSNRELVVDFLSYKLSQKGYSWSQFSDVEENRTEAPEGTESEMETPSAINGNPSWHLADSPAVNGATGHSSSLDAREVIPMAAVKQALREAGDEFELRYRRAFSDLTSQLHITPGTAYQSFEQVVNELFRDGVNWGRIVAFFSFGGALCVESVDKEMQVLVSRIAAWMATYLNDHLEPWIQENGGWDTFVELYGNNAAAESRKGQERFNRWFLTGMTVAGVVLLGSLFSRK

Row | Structure (SMILES) | pIC50 (BCL-2) | pIC50 (BCL-xL) | pIC50 (BCL-2 [G101V]) | CC50 (RS4-11 cells) | CC50 at 3 days [1] | CC50 (MOLT-4 cells) | pEC50 [2]
1 | COc1cccc(CN(C(=O)c2cc(-c3cc(Cl)ccc3C(=O)N3Cc4ccccc4C[C@H]3CN3CCOCC3)n(C)c2C)c2ccc3[nH]ncc3c2)c1C [Compound 70, 5-[5-chloro-2-[(3S)-3-(morpholinomethyl)-3,4-dihydro-1H-isoquinoline-2-carbonyl]phenyl]-N-(1H-indazol-5-yl)-N-[(3-methoxy-2-methyl-phenyl)methyl]-1,2-dimethyl-pyrrole-3-carboxamide] | 8.00 to 8.30 | < 5.30 | < 6.00 | > 200 nM | > 25000 nM | ≤ 5000 nM | < 6.30
2 | COc1cc(C(=O)N2Cc3ccccc3C[C@H]2CN2CCOCC2)c(-c2cc(C(=O)N(Cc3cccc(OC)c3C)c3ccc(O)cc3)c(C)n2C)cc1F [Compound 21, 5-[5-fluoro-4-methoxy-2-[(3S)-3-(morpholinomethyl)-3,4-dihydro-1H-isoquinoline-2-carbonyl]phenyl]-N-(4-hydroxyphenyl)-N-[(3-methoxy-2-methyl-phenyl)methyl]-1,2-dimethyl-pyrrole-3-carboxamide] | 7.30 to 8.00 | 5.30 to 5.70 | 6.00 to 7.00 | 100 to 200 nM | > 25000 nM | ≤ 5000 nM | ≥ 6.70
3 | COc1cccc(CN(C(=O)c2cc(-c3cc(F)ccc3C(=O)N3Cc4ccccc4C[C@H]3CN3CCOCC3)n(C)c2C)c2ccc(O)cc2)c1C [Compound 52, 5-[5-fluoro-2-[(3S)-3-(morpholinomethyl)-3,4-dihydro-1H-isoquinoline-2-carbonyl]phenyl]-N-(4-hydroxyphenyl)-N-[(3-methoxy-2-methyl-phenyl)methyl]-1,2-dimethyl-pyrrole-3-carboxamide] | ≥ 8.30 | 5.30 to 5.70 | ≥ 7.00 | ≤ 100 nM | > 25000 nM | ≤ 5000 nM | 6.30 to 6.70
4 | COc1cccc(CN(C(=O)c2cc(-c3ccc(OC(F)F)cc3C(=O)N3Cc4ccccc4C[C@H]3CN3CCOCC3)n(C)c2C)c2ccc(O)cc2)c1C [Compound 31, 5-[4-(difluoromethoxy)-2-[(3S)-3-(morpholinomethyl)-3,4-dihydro-1H-isoquinoline-2-carbonyl]phenyl]-N-(4-hydroxyphenyl)-N-[(3-methoxy-2-methyl-phenyl)methyl]-1,2-dimethyl-pyrrole-3-carboxamide] | 8.00 to 8.30 | 5.30 to 5.70 | < 6.00 | > 200 nM | > 25000 nM | ≤ 5000 nM | < 6.30
5 | COc1cccc(CN(C(=O)c2cc(-c3cc(Cl)ccc3C(=O)N3Cc4ccccc4C[C@H]3CN3CCOCC3)n3c2CCCC3)c2ccc(O)cc2)c1C [Compound 4, 3-[5-chloro-2-[(3S)-3-(morpholinomethyl)-3,4-dihydro-1H-isoquinoline-2-carbonyl]phenyl]-N-(4-hydroxyphenyl)-N-[(3-methoxy-2-methyl-phenyl)methyl]-5,6,7,8-tetrahydroindolizine-1-carboxamide] | ≥ 8.30 | < 5.30 | 6.00 to 7.00 | ≤ 100 nM | 10000 to 25000 nM | ≤ 5000 nM | ≥ 6.70
6 | COc1cccc(CN(C(=O)c2cc(-c3cc([N+](=O)[O-])ccc3C(=O)N3Cc4ccccc4C[C@H]3CN3CCOCC3)n(C)c2C)c2ccc3[nH]ncc3c2)c1C [Compound 65, N-(1H-indazol-5-yl)-N-[(3-methoxy-2-methyl-phenyl)methyl]-1,2-dimethyl-5-[2-[(3S)-3-(morpholinomethyl)-3,4-dihydro-1H-isoquinoline-2-carbonyl]-5-nitro-phenyl]pyrrole-3-carboxamide] | 7.30 to 8.00 | < 5.30 | < 6.00 | > 200 nM | 10000 to 25000 nM | ≤ 5000 nM | < 6.30
7 | COc1cccc(CN(C(=O)c2cc(-c3cc(NC(C)=O)ccc3C(=O)N3Cc4ccccc4C[C@H]3CN3CCOCC3)n(C)c2C)c2ccc(O)cc2)c1C [Compound 48, 5-[5-acetamido-2-[(3S)-3-(morpholinomethyl)-3,4-dihydro-1H-isoquinoline-2-carbonyl]phenyl]-N-(4-hydroxyphenyl)-N-[(3-methoxy-2-methyl-phenyl)methyl]-1,2-dimethyl-pyrrole-3-carboxamide] | 8.00 to 8.30 | 5.30 to 5.70 | 6.00 to 7.00 |  |  |  | 
8 | COc1cc(C(=O)N2Cc3ccccc3C[C@H]2CN2CCOCC2)c(-c2cc(C(=O)N(Cc3cccc(OC)c3C)c3ccc(O)cc3)c(C)n2C)cc1Cl [Compound 11, 5-[5-chloro-4-methoxy-2-[(3S)-3-(morpholinomethyl)-3,4-dihydro-1H-isoquinoline-2-carbonyl]phenyl]-N-(4-hydroxyphenyl)-N-[(3-methoxy-2-methyl-phenyl)methyl]-1,2-dimethyl-pyrrole-3-carboxamide] | 7.30 to 8.00 | 5.30 to 5.70 | 6.00 to 7.00 | 100 to 200 nM | > 25000 nM | ≤ 5000 nM | ≥ 6.70
9 | N#Cc1ccccc1CN(C(=O)c1cc(-c2cc(Cl)ccc2C(=O)N2Cc3ccccc3C[C@H]2CN2CCOCC2)n2c1CCCC2)c1ccc(Cl)cc1 [Compound 1, 3-[5-chloro-2-[(3S)-3-(morpholinomethyl)-3,4-dihydro-1H-isoquinoline-2-carbonyl]phenyl]-N-(4-chlorophenyl)-N-[(2-cyanophenyl)methyl]-5,6,7,8-tetrahydroindolizine-1-carboxamide] | < 7.30 | < 5.30 | < 6.00 |  |  |  | < 6.30
10 | COc1cccc(CN(C(=O)c2cc(-c3cc(Cl)ccc3C(=O)N3Cc4ccccc4C[C@H]3CN3CCOCC3)n3c2CCCC3)c2ccc(Cl)cc2)c1C [Compound 2, 3-[5-chloro-2-[(3S)-3-(morpholinomethyl)-3,4-dihydro-1H-isoquinoline-2-carbonyl]phenyl]-N-(4-chlorophenyl)-N-[(3-methoxy-2-methyl-phenyl)methyl]-5,6,7,8-tetrahydroindolizine-1-carboxamide] | 7.30 to 8.00 | < 5.30 | < 6.00 |  |  |  | < 6.30
11 | COc1cccc(CN(C(=O)c2cc(-c3cc(S(C)(=O)=O)ccc3C(=O)N3Cc4ccccc4C[C@H]3CN3CCOCC3)n(C)c2C)c2ccc(O)cc2)c1C [Compound 49, N-(4-hydroxyphenyl)-N-[(3-methoxy-2-methyl-phenyl)methyl]-1,2-dimethyl-5-[5-methylsulfonyl-2-[(3S)-3-(morpholinomethyl)-3,4-dihydro-1H-isoquinoline-2-carbonyl]phenyl]pyrrole-3-carboxamide] | ≥ 8.30 | 5.30 to 5.70 | ≥ 7.00 | ≤ 100 nM | > 25000 nM | 5000 to 10000 nM | 
